We go through 10 molecules from ChEMBL document CHEMBL3046919, “Synthesis and herbicidal activity of substituted pyrazole isothiocyanates” (Molecules, 2012).

In brackets after ≈: the same amount, converted by molar mass.

In experiment [1] the test system is Echinochloa crus-galli. Put plainly: Herbicidal activity against Echinochloa crus-galli (barnyard grass) at 75 g a.i./ha measured after 14 days relative to control. Type of experiment: functional.
In experiment [2] the test system is Cyperus iria. Briefly: Herbicidal activity against Cyperus iria at 75 g a.i./ha measured after 14 days relative to control. The class given is functional.
Experiment [3] deals with Trifolium repens. Briefly: Herbicidal activity against Trifolium repens at 75 g a.i./ha measured after 14 days relative to control. Type of experiment: functional.
The subject of experiment [4] is Dactylis glomerata. Briefly: Herbicidal activity against Dactylis glomerata at 75 g a.i./ha measured after 14 days relative to control. The class given is functional.
Experiment [5] has as its system Trifolium repens. Briefly: Herbicidal activity against Trifolium repens measured after 14 days relative to control. The class given is functional, organism-based. Conditions: for EC50: 336 h.
The test system of experiment [6] is Echinochloa crus-galli. Briefly: Herbicidal activity against Echinochloa crus-galli (barnyard grass) measured after 14 days relative to control. The class given is functional, organism-based. Particulars: for EC50: 336 h.
Experiment [7] relates to Cyperus iria. Briefly: Herbicidal activity against Cyperus iria measured after 14 days relative to control. The class given is functional, organism-based. Conditions: for EC50: 336 h.
The subject of experiment [8] is Dactylis glomerata. Put plainly: Herbicidal activity against Dactylis glomerata measured after 14 days relative to control. The class given is functional, organism-based. Particulars: for EC50: 336 h.
The subject of experiment [9] is Cyperus iria. Put plainly: Herbicidal activity against Cyperus iria at 15 g a.i./ha measured after 14 days relative to control. Type of experiment: functional.
For experiment [10], the system named is Echinochloa crus-galli. Briefly: Herbicidal activity against Echinochloa crus-galli (barnyard grass) at 15 g a.i./ha measured after 14 days relative to control. The class given is functional.
In experiment [11] the test system is Trifolium repens. Put plainly: Herbicidal activity against Trifolium repens at 15 g a.i./ha measured after 14 days relative to control. Type of experiment: functional.
Experiment [12] deals with Dactylis glomerata. Put plainly: Herbicidal activity against Dactylis glomerata at 15 g a.i./ha measured after 14 days relative to control. Type of experiment: functional.

For `CCOC(=O)c1c(SCc2ccccc2)nn(-c2ccccc2)c1NCCCN=C=S`, the Activity in the experiment with Echinochloa crus-galli [1] is 65.32%; in the experiment with Cyperus iria [2], 68.59%; in the experiment on Trifolium repens [3] it was 65.78%; in the experiment on Dactylis glomerata [4], 64.53%.

`Cn1nc(SCc2ccccc2)c(C#N)c1NCCCN=C=S`: the Activity in the experiment on Echinochloa crus-galli [1] was 44.62%; in the experiment on Cyperus iria [2], 42.56%; in the experiment on Trifolium repens [3], 34.48%; with Dactylis glomerata [4], 31.25%.

Turning to `CCOC(=O)c1c(SCc2ccccc2)nn(C)c1NCCCN=C=S`, the Activity in the experiment on Echinochloa crus-galli [1] worked out at 63.32%; with Cyperus iria [2], 55.36%; with Trifolium repens [3], 45.12%; with Dactylis glomerata [4], 46.53%.

For orientation: EC50 means the concentration needed to bring the measured effect to its halfway point. The low end stands for an effect from little substance, the high end for a need for much substance. For the molecule `N#Cc1c(SCc2ccccc2)nn(-c2ccccc2)c1NCCCN=C=S`, the Activity in the experiment on Echinochloa crus-galli [1] was 79.39%; in the experiment with Trifolium repens [5], “Dose-dependent effect”; in the experiment with Cyperus iria [2], 86.53%; in the experiment with Trifolium repens [3] it was 75.57%; in the experiment with Dactylis glomerata [4], 79.26%; with Echinochloa crus-galli [6], “Dose-dependent effect”. The Activity entry in the experiment with Cyperus iria [7] and in the experiment on Dactylis glomerata [8] was “Dose-dependent effect” in each case. The concentration giving a half-maximal response (EC50) was found to be 67.7 µg/mL (≈ 167 µM) with Trifolium repens [5], 64.3 µg/mL (≈ 159 µM) in the experiment on Echinochloa crus-galli [6], 65.8 µg/mL (≈ 162 µM) in the experiment with Cyperus iria [7] and 62.4 µg/mL (≈ 154 µM) with Dactylis glomerata [8].

For the molecule `CCOC(=O)c1c(SC)nn(-c2ccccc2)c1NCCCN=C=S`, the Activity in the experiment on Echinochloa crus-galli [1] is given as 58.93%; with Cyperus iria [2], 60.23%; in the experiment with Trifolium repens [3], 60.68%; in the experiment with Dactylis glomerata [4] it was 59.08%.

In the case of `CSc1nn(-c2ccccc2)c(NCCCN=C=S)c1C#N`, the Activity with Echinochloa crus-galli [1] is listed as 54.62%; with Cyperus iria [2], 57.69%; with Trifolium repens [3], 56.46%; in the experiment on Dactylis glomerata [4], 55.62%.

For `CCOC(=O)c1c(SC)nn(C)c1NCCCN=C=S`, the Activity was found to be 52.32% with Echinochloa crus-galli [1], 58.96% with Cyperus iria [2], 62.39% in the experiment with Trifolium repens [3] and 56.25% in the experiment with Dactylis glomerata [4].

As to `CCOC(=O)c1ccccc1S(=O)(=O)NC(=O)Nc1nc(Cl)cc(OC)n1` [CHLORIMURON ETHYL], the half-maximal effective concentration (EC50) in the experiment on Trifolium repens [5] was 9.98 µg/mL (≈ 24.1 µM); in the experiment with Echinochloa crus-galli [6], 10.7 µg/mL (≈ 25.7 µM); in the experiment on Cyperus iria [7] it was 12.9 µg/mL (≈ 31.1 µM); in the experiment on Dactylis glomerata [8] it was 15.2 µg/mL (≈ 36.7 µM). For the same molecule, the Activity in the experiment with Cyperus iria [9] is recorded as 92.23%; with Echinochloa crus-galli [10], 98.32%; in the experiment with Trifolium repens [11] it was 95.69%; in the experiment with Dactylis glomerata [12], 78.25%.

Turning to `C=CCN=C=S` [ALLYL ISOTHIOCYANATE], the Activity in the experiment on Echinochloa crus-galli [1] was 25.86%; in the experiment with Cyperus iria [2], 32.59%; in the experiment on Trifolium repens [3], 13.33%; with Dactylis glomerata [4], 40.12%.

For `CSc1nn(C)c(NCCCN=C=S)c1C#N`, the Activity was 78.69% in the experiment on Echinochloa crus-galli [1]; “Dose-dependent effect” in the experiment on Trifolium repens [5]; 70.23% with Cyperus iria [2]; 73.33% in the experiment with Trifolium repens [3]; 74.33% with Dactylis glomerata [4]; “Dose-dependent effect” with Echinochloa crus-galli [6]. The Activity entry in the experiment on Cyperus iria [7] and with Dactylis glomerata [8] was “Dose-dependent effect” in each case. For the same molecule, the 50% effective concentration (EC50) in the experiment with Trifolium repens [5] was determined as 67.4 µg/mL (≈ 252 µM); in the experiment on Echinochloa crus-galli [6] it was 65.3 µg/mL (≈ 244 µM); with Cyperus iria [7], 64.9 µg/mL (≈ 243 µM); in the experiment on Dactylis glomerata [8], 59.4 µg/mL (≈ 222 µM).
